Assay results as given in paper PMC9967956, “Efficacy of Trichoderma longibrachiatum Trichogin GA IV Peptaibol analogs against the Black Rot Pathogen Xanthomonas campestris pv. campestris and other Phytopathogenic Bacteria” (Microorganisms, 2023).
In brackets after ≈: the same amount, converted by molar mass. Where a SMILES comes first, the peptide text is derived from it. [ ]: non-standard residue; d: D form. The star is where a group is joined. Azidoacetyl = [N-]=[N+]=NCC(=O)*; Leu(ol) = CC(C)C[C@H](N)CO; Octanoyl = CCCCCCCC(=O)*; nOct = not defined here; Aib = CC(C)(N)C(=O)O

Assays:
[1] = system: Xanthomonas campestris pv. campestris; assay: MIC and MBC determinations against Xcc; type: cell-based; design: key to Bacteriostatic (MIC) / bactericidal (MBC) activity at 0.5 µM / Bacteriostatic (MIC) / bactericidal (MBC) activity at 1 µM / Bacteriostatic (MIC) / bactericidal (MBC) activity at 3 µM / Bacteriostatic (MIC) / bactericidal (MBC) activity at 2 µM: Dashes (-) indicate the absence of bacteriostatic or bactericidal activity; Minimal Inhibitory Concentration (MIC); Minimal Bactericidal Concentration (MBC); MIC and MBC: Minimal Inhibitory Concentration (MIC) and Minimal Bactericidal Concentration (MBC); conditions: for MIC: lowest concentration that completely inhibited visible growth, 72 h, tested 3, 2, 1 and 0.5 µM; for Bacteriostatic (MIC) / bactericidal (MBC) activity at 0.5 µM: peptide 0.5 µM; for Bacteriostatic (MIC) / bactericidal (MBC) activity at 0.5 µM / Bacteriostatic (MIC) / bactericidal (MBC) activity at 1 µM / Bacteriostatic (MIC) / bactericidal (MBC) activity at 2 µM / Bacteriostatic (MIC) / bactericidal (MBC) activity at 3 µM: 72 h growth inhibition, then plating on LBA 24 h; for Bacteriostatic (MIC) / bactericidal (MBC) activity at 1 µM: peptide 1 µM; for Bacteriostatic (MIC) / bactericidal (MBC) activity at 2 µM: peptide 2 µM; for Bacteriostatic (MIC) / bactericidal (MBC) activity at 3 µM: peptide 3 µM
Experimental: Peptaibols were tested at decreasing concentrations (3, 2, 1 and 0.5 µM). Minimal Bactericidal Concentration (MBC) was determined at the end of the incubation period (72 h) by plating, onto LBA plates, 5 µL samples that were collected from each well with no visible growth.

[2] = system: Xanthomonas campestris pv. campestris strain RC1; assay: Growth inhibition assay against Xcc (OD600); conditions: LB, 27 °C, 72 h, OD 600 nm, three replicates, two independent experiments
P. oryzae = conditions: cited from earlier work

| Compound | MIC [1] | Bacteriostatic (MIC) / bactericidal (MBC) activity at 0.5 µM [1] | Bacteriostatic (MIC) / bactericidal (MBC) activity at 1 µM [1] | Inhibition of Xcc growth in vitro ([2]; peptide 3 µM) | Inhibition of Xcc growth in vitro ([2]; peptide 15 µM) | other results |
| --- | --- | --- | --- | --- | --- | --- |
| CCCCCCCC(=O)NC(C)(C)C(=O)N[C@@H](CCCCN)C(=O)N[C@@H](CC(C)C)C(=O)NC(C)(C)C(=O)NCC(=O)NCC(=O)N[C@@H](CC(C)C)C(=O)NC(C)(C)C(=O)NCC(=O)N[C@H](C(=O)N[C@H](CO)CC(C)C)[C@@H](C)CC [Peptide 2] (Octanoyl-[Aib]KL[Aib]GGL[Aib]GI[Leu(ol)]) | 3 µM (≈ 3.41 µg/mL) | - | - | complete inhibition | completely inhibit | Bacteriostatic (MIC) / bactericidal (MBC) activity at 2 µM [1]: -; Bacteriostatic (MIC) / bactericidal (MBC) activity at 3 µM [1]: MIC |
| CCCCCCCC(=O)NC(C)(C)C(=O)N[C@@H](CCCCN)C(=O)N[C@@H](CCCCN)C(=O)N[C@@H](CC(C)C)C(=O)NC(C)(C)C(=O)NCC(=O)N[C@H](C(=O)N[C@H](CO)CC(C)C)[C@@H](C)CC [Peptide 4c] (Octanoyl-[Aib]KKL[Aib]GI[Leu(ol)]) | 3 µM (≈ 2.86 µg/mL) | - | - | confirmed the Xcc growth inhibition detected at 15 µM | completely inhibited | Bacteriostatic (MIC) / bactericidal (MBC) activity at 2 µM [1]: -; Bacteriostatic (MIC) / bactericidal (MBC) activity at 3 µM [1]: MIC |
| CCCCCCCC(=O)NC(C)(C)C(=O)N[C@@H](CCCCN)C(=O)N[C@@H](CC(C)C)C(=O)NC(C)(C)C(=O)N[C@@H](CCCCN)C(=O)NCC(=O)N[C@@H](CC(C)C)C(=O)NC(C)(C)C(=O)N[C@@H](CCCCN)C(=O)N[C@H](C(=O)N[C@@H](CC(C)C)C(N)=O)[C@@H](C)CC [Peptide 5r] (Octanoyl-[Aib]KL[Aib]KGL[Aib]KIL-NH2) | 2 µM (≈ 2.59 µg/mL) | - | - | confirmed the Xcc growth inhibition detected at 15 µM | complete inhibition |  |
| CC[C@H](C)[C@H](NC(=O)[C@H](CCCCN)NC(=O)C(C)(C)NC(=O)[C@H](CC(C)C)NC(=O)[C@H](CCCCN)NC(=O)[C@H](CCCCN)NC(=O)C(C)(C)NC(=O)[C@H](CC(C)C)NC(=O)[C@H](CCCCN)NC(=O)C(C)(C)NC(=O)CN=[N+]=[N-])C(=O)N[C@H](CO)CC(C)C [Peptide 9] (Azidoacetyl-[Aib]KL[Aib]KKL[Aib]KI[Leu(ol)]) | 1 µM (≈ 1.31 µg/mL) | - | MIC | complete inhibition |  |  |
| CCCCCCCC(=O)NC(C)(C)C(=O)N[C@@H](CCCCN)C(=O)N[C@@H](CC(C)C)C(=O)NC(C)(C)C(=O)N[C@@H](CCCCN)C(=O)N[C@@H](CCCCN)C(=O)N[C@@H](CC(C)C)C(=O)NC(C)(C)C(=O)N[C@@H](CCCCN)C(=O)N[C@H](C(=O)N[C@@H](CC(C)C)C(=O)NC(C)(C)C(=O)N[C@@H](CCCCN)C(=O)N[C@@H](CC(C)C)C(=O)NC(C)(C)C(=O)N[C@@H](CCCCN)C(=O)N[C@@H](CCCCN)C(=O)N[C@@H](CC(C)C)C(=O)NC(C)(C)C(=O)N[C@@H](CCCCN)C(=O)N[C@H](C(=O)N[C@H](CO)CC(C)C)[C@@H](C)CC)[C@@H](C)CC [Peptide 10] (Octanoyl-[Aib]KL[Aib]KKL[Aib]KIL[Aib]KL[Aib]KKL[Aib]KI[Leu(ol)]) | 2 µM (≈ 5.14 µg/mL) | - | - | complete inhibition |  |  |
| CCCCCCCC(=O)NC(C)(C)C(=O)NCC(=O)N[C@@H](CC(C)C)C(=O)NC(C)(C)C(=O)NCC(=O)N[C@@H](CCCCN)C(=O)N[C@@H](CC(C)C)C(=O)NC(C)(C)C(=O)NCC(=O)N[C@H](C(=O)N[C@H](CO)CC(C)C)[C@@H](C)CC [Peptide 22] | 2 µM (≈ 2.28 µg/mL) | - | - | complete inhibition |  | Bacteriostatic (MIC) / bactericidal (MBC) activity at 3 µM [1]: - |
| CCCCCCCC(=O)NC(C)(C)C(=O)N[C@@H](CCCCN)C(=O)N[C@@H](CC(C)C)C(=O)NC(C)(C)C(=O)N[C@@H](CCCCN)C(=O)N[C@@H](CCCCN)C(=O)N[C@@H](CC(C)C)C(=O)NC(C)(C)C(=O)N[C@@H](CCCCN)C(=O)N[C@H](C(=O)N[C@H](CO)CC(C)C)[C@@H](C)CC [Peptide 23] (Octanoyl-[Aib]KL[Aib]KKL[Aib]KI[Leu(ol)]) | 1 µM (≈ 1.35 µg/mL) | - |  | complete inhibition |  |  |
| CCCCCCCC(=O)NC(C)(C)C(=O)N[C@@H](CCCCN)C(=O)N[C@@H](CC(C)C)C(=O)NC(C)(C)C(=O)N[C@@H](CCCCN)C(=O)N[C@@H](CCCCN)C(=O)N[C@@H](CC(C)C)C(=O)NC(C)(C)C(=O)NCC(=O)N[C@H](C(=O)N[C@H](CO)CC(C)C)[C@@H](C)CC [Peptide 24] (Octanoyl-[Aib]KL[Aib]KKL[Aib]GI[Leu(ol)]) | 1 µM (≈ 1.28 µg/mL) | - | MIC | complete inhibition |  |  |
| CCCCCCCC(=O)NC(C)(C)C(=O)N[C@@H](CCCCN)C(=O)N[C@@H](CC(C)C)C(=O)NC(C)(C)C(=O)N[C@@H](CCCCN)C(=O)N[C@@H](CCCCN)C(=O)N[C@@H](CC(C)C)C(=O)NC(C)(C)C(=O)NCC(=O)N[C@H](C(=O)N[C@@H](CC(C)C)C(N)=O)[C@@H](C)CC [Peptide 24r] (Octanoyl-[Aib]KL[Aib]KKL[Aib]GIL-NH2) | 1 µM (≈ 1.29 µg/mL) | - | MIC | confirmed the Xcc growth inhibition detected at 15 µM | complete inhibition |  |
| nOct-Aib-Gly-Leu-Aib-Gly-Gly-Leu-Aib-Gly-Ile-Lol [Trichogin GA IV, trichogin GA IV] |  |  |  |  | inactive |  |
| nOct-Aib-Gly-Leu-Aib-Gly-Gly-Leu-Aib-Lys-Ile-Lol [Peptide 25] |  |  |  | did not reduce |  |  |
| nOct-Aib-Gly-Leu-Aib-Gly-Gly-Leu-Api-Gly-Ile-Lol [Peptide 8] |  |  |  | did not reduce |  |  |
| nOct-Aib-Gly-Leu-Aib-Gly-Gly-Leu-Api-Ile-Lol [Peptide 8ApiC] |  |  |  | did not reduce |  |  |
| nOct-Aib-Gly-Leu-Aib-Gly-Lys-Leu-Aib-Gly-Ile-Leu-NH2 [Peptide 22r] |  |  |  |  | complete inhibition |  |
| nOct-Aib-Gly-Leu-Aib-Lys-Aib-Leu-Aib-Gly-Ile-Leu-NH2 [Peptide 6r] |  |  |  |  | weakly effective |  |
| nOct-Aib-Gly-Leu-Aib-Lys-Aib-Leu-Aib-Gly-Ile-Lol [Peptide 6] |  |  |  | partial growth inhibition effect | completely inhibit | Inhibition of P. oryzae (P. oryzae): strain-dependent inhibition |
| nOct-Aib-Gly-Leu-Aib-Lys-Gly-Leu-Aib-Gly-Ile-Lol [Peptide 3] | neither bacteriostatic nor bactericidal activity | - | - |  | inactive | Bacteriostatic (MIC) / bactericidal (MBC) activity at 2 µM [1]: -; Bacteriostatic (MIC) / bactericidal (MBC) activity at 3 µM [1]: - |
| nOct-Aib-Gly-Leu-Aib-Lys-Lys-Leu-Aib-Gly-Ile-Lol [Peptide 4] |  |  |  | did not reduce |  |  |
| nOct-Aib-Gly-Leu-Aib-Lys-Lys-Leu-Leu-NH2 (nOct-[Aib]GL[Aib]KKLL-NH2; reading uncertain) [Peptide 4c1] |  |  |  |  | weakly effective |  |
| nOct-Aib-Lys-Leu-Aib-Gly-Gly-Leu-Aib-Gly-Ile-Leu-NH2 [Peptide 2r] |  |  |  |  | complete inhibition |  |
| nOct-Aib-Lys-Leu-Aib-Gly-Lys-Leu-Aib-Gly-Ile-Lol [Peptide 7] |  |  |  | partial growth inhibition effect | completely inhibit |  |
| nOct-Aib-Lys-Leu-Aib-Lys-Gly-Leu-Aib-Gly-Ile-Lol [Peptide 1] |  |  |  | complete inhibition | completely inhibit |  |
| nOct-Aib-Lys-Leu-Aib-Lys-Gly-Leu-Aib-Lys-Ile-Lol [Peptide 5] |  |  |  | did not reduce |  |  |
| nOct-Aib-Lys-Lys-Leu-Aib-Gly-Ile-Leu-NH2 [Peptide 4c2] |  |  |  |  | no inhibitory effect |  |
| nOct-Toac-Gly-Leu-Aib-Gly-Gly-Leu-Aib-Arg-Ile-Lol [Peptide 11] |  |  |  | did not reduce |  |  |
